Reference: patent US9597280B2, “Cosmetic compositions comprising microalgal oil” (TerraVia Holdings, Inc., priority 2013, dated 2017)

What was measured:
[1] = test system: MatTek's EpiDerm tissue; test: Thymine dimer formation in EpiDerm skin tissue model after UVB exposure; assay type: cell-based, human; conditions: positive control, topical 24 hours after UVB 300 mJ/cm2; mean ± standard deviation; significantly different from Untreated (p < 0.05)
Procedure: Oil was extracted from heterotrophic ally cultivated Chlorella protothecoides followed by refining, bleaching and deodorization. The oil was tested for its ability to prevent thymine dimerization in a skin tissue model upon exposure to UVB (ultraviolet light of the B type). The testing system used for this assay was MatTek's EpiDerm tissue, a skin model that consists of normal human-derived epidermal keratinocytes cultured to form a multilayered, highly differentiated model of the human epidermis. For this study, the tissues were exposed to UVB (300 mJ/cm2) and then treated topically for 24 hours with the test material. Following the treatment the DNA was extracted from the EpiDerm tissues and assayed for thymine dimer content. […] The primary antibody was then detected using a secondary antibody conjugated to a fluorescent dye. […] With this method, the fluorescence intensity of each sample is proportional to the amount of the thymine dimers present in the sample. […] UVB lamp intensity was measured using a UVX radiometer with a probe specific for UVB (detects 260-360 nm, max absorbance at 310 nm, calibrated at 310 nm) to determine exposure times required for the appropriate UVB dose. […] Extracted DNA was quantified via a fluorometric assay. […]

[2] = test system: MatTek's EpiDerm tissue; test: MTT (viability) assay in EpiDerm skin tissue model after UVB exposure; assay type: cell-based, human; conditions: positive control, topical 24 hours after UVB 300 mJ/cm2; mean ± standard deviation; significantly different from Untreated (p < 0.05)
Text: Oil was extracted from heterotrophically cultivated Chlorella protothecoides followed by refining, bleaching and deodorization. A skin tissue model was used to evaluate changes in tissue viability after exposure to UVB radiation. The testing system used for this assay was MatTek's EpiDerm tissue, a skin model that consists of normal human-derived epidermal keratinocytes cultured to form a multilayered, highly differentiated model of the human epidermis. For this study, the tissues were exposed to UVB (300 mJ/cm2) and then treated topically for 24 hours with the test material. Following the treatment tissue changes in tissue viability were determined using an MTT assay. […] Reduction of MTT by mitochondria in viable cells results in the formation of insoluble purple formazin crystals that are extracted from the cells with isopropanol and quantified spectrophotometrically. […] UVB lamp intensity was measured using a UVX radiometer with a probe specific for UVB (detects 260-360 nm, max absorbance at 310 nm, calibrated at 310 nm) to determine exposure times required for the appropriate UVB dose. […] After the extraction, a 200 μl sample of the isopropanol/MTT mixture was transferred to a 96-well plate and the absorbance of the sample was read at 540 nm with a plate reader using 200 μl of isopropanol as the blank. […] Values are expressed as means±standard deviation.

In the case of `Cc1c(C)c2c(c(C)c1O)CCC(C)(C(=O)O)O2` (centres unmarked) [Trolox, 6-hydroxy-2,5,7,8-tetramethylchroman-2-carboxylic acid], the “Thymine Dimer Formation, Corrected RFU” value [1] is reported as 5198 ± 513 RFU and the “Viability (Percent of Non-UVB Exposed)” value [2] is reported as 100 ± 1.3% of Non-UVB Exposed.
